Measured values from PubChem BioAssay AID1963979 (Molecular Pharmacology Branch, DTP, NCI, 2024).

System: 361931-004-R-J1-PDC multicell spheroid viability
Test: Anticancer human tumor 361931-004-R-J1-PDC patient-derived colon adenocarcinoma cell line growth inhibition [PI3K]
Conditions: for IC50: curve of first compound; for viability, T/C: stronger effect = lower value
In short: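 Tumor cells were combined with HUVEC and MSCs into spheroids, then dosed with PI3K-inhibitor combinations over half-log ranges capped near clinical Cmax or 10 microM.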

[1] = second compound 0.0316 µM, first compound 0.0316 µM
[2] = second compound 0.0316 µM, first compound 0.1 µM
[3] = second compound 0.0316 µM, first compound 0.316 µM
[4] = second compound 0.0316 µM, first compound 1 µM
[5] = second compound 0.0316 µM, first compound 3.16 µM
[6] = second compound 0.0316 µM, first compound 10 µM
[7] = second compound 0.1 µM, first compound 0.0316 µM
[8] = second compound 0.1 µM, first compound 0.1 µM
[9] = second compound 0.1 µM, first compound 0.316 µM
[10] = second compound 0.1 µM, first compound 1 µM
[11] = second compound 0.1 µM, first compound 3.16 µM
[12] = second compound 0.1 µM, first compound 10 µM
[13] = second compound 0.316 µM, first compound 0.0316 µM
[14] = second compound 0.316 µM, first compound 0.1 µM
[15] = second compound 0.316 µM, first compound 0.316 µM
[16] = second compound 0.316 µM, first compound 1 µM
[17] = second compound 0.316 µM, first compound 3.16 µM
[18] = second compound 0.316 µM, first compound 10 µM
[19] = second compound 1 µM, first compound 0.0316 µM
[20] = second compound 1 µM, first compound 0.1 µM
[21] = second compound 1 µM, first compound 0.316 µM
[22] = second compound 1 µM, first compound 1 µM
[23] = second compound 1 µM, first compound 3.16 µM
[24] = second compound 1 µM, first compound 10 µM
[25] = second compound 3.16 µM, first compound 0.0316 µM
[26] = second compound 3.16 µM, first compound 0.1 µM
[27] = second compound 3.16 µM, first compound 0.316 µM
[28] = second compound 3.16 µM, first compound 1 µM
[29] = second compound 3.16 µM, first compound 3.16 µM
[30] = second compound 3.16 µM, first compound 10 µM
[31] = second compound 10 µM, first compound 0.0316 µM
[32] = second compound 10 µM, first compound 0.1 µM
[33] = second compound 10 µM, first compound 0.316 µM
[34] = second compound 10 µM, first compound 1 µM
[35] = second compound 10 µM, first compound 3.16 µM
[36] = second compound 10 µM, first compound 10 µM
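Also: spheroids exposed to agents for seven days before readout.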

Structure (SMILES): C#Cc1c(F)ccc2cc(O)cc(-c3ncc4c(N5CC6CCC(C5)N6)nc(OCC56CCCN5CC(F)C6)nc4c3F)c12 (stereo unspecified) + Cc1nc(NC(=O)N2CCCC2C(N)=O)sc1-c1ccnc(C(C)(C)C(F)(F)F)c1
- IC50 (second compound 0.0316 µM): > 10 µM
- IC50 (second compound 0.1 µM): > 10 µM
- IC50 (second compound 0.316 µM): > 10 µM
- IC50 (second compound 1 µM): > 10 µM
- IC50 (second compound 3.16 µM): 3.52 µM
- IC50 (second compound 10 µM): 0.219 µM
- viability, T/C [1]: 104%
- viability, T/C [2]: 90.5%
- viability, T/C [3]: 91.6%
- viability, T/C [4]: 83%
- viability, T/C [5]: 79.7%
- viability, T/C [6]: 69.3%
- viability, T/C [7]: 109%
- viability, T/C [8]: 98.3%
- viability, T/C [9]: 93.7%
- viability, T/C [10]: 88.9%
- viability, T/C [11]: 88.2%
- viability, T/C [12]: 61.8%
- viability, T/C [13]: 91.6%
- viability, T/C [14]: 86.5%
- viability, T/C [15]: 78.6%
- viability, T/C [16]: 69.5%
- viability, T/C [17]: 73.5%
- viability, T/C [18]: 58%
- viability, T/C [19]: 89.2%
- viability, T/C [20]: 86.2%
- viability, T/C [21]: 70.3%
- viability, T/C [22]: 62.2%
- viability, T/C [23]: 68.2%
- viability, T/C [24]: 58.6%
- viability, T/C [25]: 85.4%
- viability, T/C [26]: 77.9%
- viability, T/C [27]: 65.5%
- viability, T/C [28]: 53.9%
- viability, T/C [29]: 56.5%
- viability, T/C [30]: 42%
- viability, T/C [31]: 62.2%
- viability, T/C [32]: 48%
- viability, T/C [33]: 49%
- viability, T/C [34]: 40.2%
- viability, T/C [35]: 39.2%
- viability, T/C [36]: 22.1%

Structure (SMILES): CC(Cn1ccc(-c2ccc(C#N)c(Cl)c2)n1)NC(=O)c1cc(C(C)O)[nH]n1 (stereo unspecified) + Cc1nc(NC(=O)N2CCCC2C(N)=O)sc1-c1ccnc(C(C)(C)C(F)(F)F)c1
- IC50 (second compound 0.0316 µM): > 10 µM
- IC50 (second compound 0.1 µM): > 10 µM
- IC50 (second compound 0.316 µM): > 10 µM
- IC50 (second compound 1 µM): > 10 µM
- IC50 (second compound 3.16 µM): > 10 µM
- IC50 (second compound 10 µM): > 10 µM
- viability, T/C [1]: 102%
- viability, T/C [2]: 102%
- viability, T/C [3]: 96.3%
- viability, T/C [4]: 100%
- viability, T/C [5]: 107%
- viability, T/C [6]: 98.7%
- viability, T/C [7]: 105%
- viability, T/C [8]: 105%
- viability, T/C [9]: 99.1%
- viability, T/C [10]: 113%
- viability, T/C [11]: 109%
- viability, T/C [12]: 101%
- viability, T/C [13]: 98.5%
- viability, T/C [14]: 113%
- viability, T/C [15]: 95.6%
- viability, T/C [16]: 105%
- viability, T/C [17]: 98.9%
- viability, T/C [18]: 91.5%
- viability, T/C [19]: 95.4%
- viability, T/C [20]: 102%
- viability, T/C [21]: 87.4%
- viability, T/C [22]: 96%
- viability, T/C [23]: 97%
- viability, T/C [24]: 84.2%
- viability, T/C [25]: 87.4%
- viability, T/C [26]: 81.3%
- viability, T/C [27]: 90.7%
- viability, T/C [28]: 83.6%
- viability, T/C [29]: 94.4%
- viability, T/C [30]: 79.4%
- viability, T/C [31]: 68%
- viability, T/C [32]: 68%
- viability, T/C [33]: 72.8%
- viability, T/C [34]: 62.4%
- viability, T/C [35]: 59.8%
- viability, T/C [36]: 53%

Structure (SMILES): CC1(C)CCC(Nc2ncc(C(F)(F)F)c(-c3c[nH]c4c(P(C)(C)=O)c(C#N)ccc34)n2)CN1 (stereo unspecified) + Cc1nc(NC(=O)N2CCCC2C(N)=O)sc1-c1ccnc(C(C)(C)C(F)(F)F)c1
- IC50 (second compound 0.0316 µM): 4.5 µM
- IC50 (second compound 0.1 µM): 3.7 µM
- IC50 (second compound 0.316 µM): 4.24 µM
- IC50 (second compound 1 µM): 4.32 µM
- IC50 (second compound 3.16 µM): 2.72 µM
- IC50 (second compound 10 µM): < 0.0316 µM
- viability, T/C [1]: 97.1%
- viability, T/C [2]: 82.6%
- viability, T/C [3]: 79.9%
- viability, T/C [4]: 79.9%
- viability, T/C [5]: 71.3%
- viability, T/C [6]: 5.89%
- viability, T/C [7]: 101%
- viability, T/C [8]: 92.8%
- viability, T/C [9]: 84.9%
- viability, T/C [10]: 78.5%
- viability, T/C [11]: 59.7%
- viability, T/C [12]: 7.04%
- viability, T/C [13]: 89.8%
- viability, T/C [14]: 84.4%
- viability, T/C [15]: 74.8%
- viability, T/C [16]: 70.6%
- viability, T/C [17]: 69.1%
- viability, T/C [18]: 5.97%
- viability, T/C [19]: 76.5%
- viability, T/C [20]: 68.6%
- viability, T/C [21]: 65.2%
- viability, T/C [22]: 80.4%
- viability, T/C [23]: 65.8%
- viability, T/C [24]: 6.15%
- viability, T/C [25]: 73.5%
- viability, T/C [26]: 62.5%
- viability, T/C [27]: 59.5%
- viability, T/C [28]: 57.5%
- viability, T/C [29]: 51.4%
- viability, T/C [30]: 4.43%
- viability, T/C [31]: 49.1%
- viability, T/C [32]: 51.9%
- viability, T/C [33]: 44.9%
- viability, T/C [34]: 44.1%
- viability, T/C [35]: 39.5%
- viability, T/C [36]: 1.98%
